Reference: article PMC7496931, “Activation of Sirtuin 2 Inhibitors Employing Photoswitchable Geometry and Aqueous Solubility” (Chemmedchem, 2020)
Values belong to the compound of their own block, whether it stands above or below them.

Biological target: T1, Sirt2 (Homo sapiens, UniProt Q8IXJ6)
T1 construct: Expression and purification of Sirt1_133−747, Sirt2_56−356, and Sirt3_118−395 was carried out as described previously; made in house
T1 sequence (Q8IXJ6 56-356): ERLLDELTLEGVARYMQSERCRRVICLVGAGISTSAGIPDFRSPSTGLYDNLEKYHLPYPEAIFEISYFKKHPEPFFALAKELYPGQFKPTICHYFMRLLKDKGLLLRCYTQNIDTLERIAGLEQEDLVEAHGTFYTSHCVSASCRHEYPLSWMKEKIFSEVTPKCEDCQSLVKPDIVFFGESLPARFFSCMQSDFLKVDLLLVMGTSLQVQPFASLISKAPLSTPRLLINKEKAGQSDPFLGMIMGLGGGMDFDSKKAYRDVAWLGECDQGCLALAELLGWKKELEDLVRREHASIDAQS
Experiment: FP-based binding assay (competition with fluorescently labelled SirReal probe)
Set-up: key to Sirt2 inhibition FP-Assay (class): n.i. = no inhibition detected
Description: This conformational change is also observed upon binding of numerous other compounds as myristoylated substrates, for instance.23 A recently developed fluorescence polarization (FP)‐based binding assay was utilized to determine whether our compounds are able to prevent binding of a fluorescently labelled SirReal to the catalytic core of Sirt2.7 Serendipitously, competition with the fluorescent probe could be confirmed for 7 f (Table S3). […] Therefore, this scaffold seemed to be a promising structure for further derivatization. […]
yielding the percentage substrate conversion. Comparison of the determined substrate conversion with a no-inhibition DMSO control yields the percentage inhibition at the respective […]
For determination of IC50, inhibitory activity of the respective compound was determined at 8 to 10 distinct concentrations. The measured values were analysed by a non-linear fit to the dose-response curve using a four parameter logistic model (Figure S6):
Figure S6: Non-linear regression of the dose-response curves of compounds 15c and 15f at the thermal equilibrium (∆, black) and after 5 minutes of 365 nm irradiation (red). […]
before 5 µL of the solution of 21 (40 nM final assay concentration) were added. After further 30 min of incubation at 37 °C the fluorescence intensities were recorded with an EnVisionTM plate reader (PerkinElmer) with the following settings: optical module – BODIPY TMR FP, excitation filter – FP 531 nm, emission filter 1 – FP p-pol 595 nm, emission filter 2 – FP s-pol 595 nm. Fluorescence polarization (P) values were determined as […] (mP), […]
where Is/IP are the fluorescence intensities measured in the s- and the p-plane respectively, both blank corrected. […] Inhibition was calculated from fluorescence polarization in relation to the maximal polarization and minimal […]
Table S3: Compounds 7c, 7f and 9a examined in the FP-based binding assay and in the ZMAL activity assay. Inhibition of Sirt2 in the FP-based binding assay indicates displacement of the fluorescence-labelled SirReal probe and implies a similar binding mode. […]

inhibition at 100 µM (@ 100 µM, read-out: Sirt2 inhibition FP-Assay, % inhibition of binding of the fluorescent probe): 69%
SMILES: CC(=O)Nc1c(C)cc(/N=N/c2cncc(C(N)=O)c2)cc1C [9 a]

Sirt2 inhibition FP-Assay (class): n.i.
SMILES: NC(=O)c1cncc(/N=N/c2c(O)ccc3ccccc23)c1 [7 c]

inhibition at 10 µM (@ 10 µM, read-out: Sirt2 inhibition FP-Assay, % inhibition of binding of the fluorescent probe): 46%
SMILES: Cc1cc(/N=N/c2cncc(C(N)=O)c2)cc(C)c1N [7 f]
